The values below come from PubChem BioAssay AID1259408 (Genetic Toxicology Data Bank (GENE-TOX), 2018).

The subject of this series is GENE-TOX genotoxicity assays, various organisms and cells. The series can be described thus: GENE-TOX mutagenicity studies. The conditions noted are these: for call: Assay Type: In vivo carcinogenicity studies.
[1] abbreviates: Species/Cell Type: Human diploid fibroblasts, Assay Type: Unscheduled DNA synthesis (UDS) in vitro, DNA effects, Assay Code: UDH-, Evaluation Type: Evaluation A (Pre-1980).
The mark [2] stands for this setting: Species/Cell Type: Human, Assay Type: Sister-chromatid exchange (SCE) in vitro, Assay Code: SC1+D, Dose Response: With dose response, Evaluation Type: Evaluation B (Post-1980).
[3] abbreviates: Species/Cell Type: Saccharomyces cerevisiae, Assay Type: Mitotic recombination or gene conversion, Assay Code: YEH-, Evaluation Type: Evaluation A (Pre-1980).
Setting [4] is: Species/Cell Type: Salmonella typhimurium (one or more of the five standard strains: TA98, TA100, TA1535, TA1537, and TA1538), Assay Type: Histidine reverse gene mutation, Ames assay, Assay Code: SALT, Evaluation Type: Evaluation A (Pre-1980).
[5] abbreviates: Species/Cell Type: Saccharomyces cerevisiae, Assay Type: Mitotic recombination or gene conversion, Assay Code: YEC-, Evaluation Type: Evaluation A (Pre-1980).
The mark [6] stands for this setting: Species/Cell Type: Syrian hamster embryo (SA7/SHE) cells, Assay Type: Cell transformation, viral enhanced, Assay Code: CT7+, Evaluation Type: Evaluation A (Pre-1980).
Where [7] appears, read: Species/Cell Type: Human, Sex: Male, Assay Type: Sperm morphology, Assay Code: SPHT, Evaluation Type: Evaluation A (Pre-1980).
Setting [8] is: Species/Cell Type: Nonhuman, Assay Code: CCGT, Evaluation Type: Evaluation A (Pre-1980).
The mark [9] stands for this setting: Species/Cell Type: Mammalian polychromatic erythrocytes, Assay Type: Micronucleus test, chromosome aberrations, Assay Code: MNTT, Evaluation Type: Evaluation B (Post-1980).
Setting [10] is: Species/Cell Type: Arabidopsis species, Assay Type: Gene mutation, Assay Code: ARM+, Evaluation Type: Evaluation A (Pre-1980).
[11] abbreviates: Species/Cell Type: Nonhuman, Assay Code: CCG+, Evaluation Type: Evaluation A (Pre-1980).
[12] abbreviates: Species/Cell Type: Drosophila melanogaster, Assay Type: Sex-linked recessive lethal gene mutation, Assay Code: SRL+, Evaluation Type: Evaluation A (Pre-1980).
The mark [13] stands for this setting: Species/Cell Type: Salmonella typhimurium (one or more of the five standard strains: TA98, TA100, TA1535, TA1537, and TA1538), Assay Type: Histidine reverse gene mutation, Ames assay, Assay Code: SAL+, Evaluation Type: Evaluation A (Pre-1980).
[14] abbreviates: Species/Cell Type: Salmonella typhimurium (one or more of the five standard strains: TA98, TA100, TA1535, TA1537, and TA1538), Assay Type: Histidine reverse gene mutation, Ames assay, Assay Code: SAL-, Evaluation Type: Evaluation A (Pre-1980).
The mark [15] stands for this setting: Species/Cell Type: Salmonella typhimurium (one or more of the five standard strains: TA98, TA100, TA1535, TA1537, and TA1538), Assay Type: Histidine reverse gene mutation, Ames assay, Assay Code: SAL+*, Activation: With metabolic activation, Evaluation Type: Evaluation A (Pre-1980).

The structures appear in SMILES notation. Calls of active or inactive are those of the source. How the calls were made is not given here.

On to `CCOP(=S)(OCC)Oc1nc(Cl)c(Cl)cc1Cl`, for which the mutagenic call runs as follows: (Species/Cell Type: Drosophila melanogaster, Assay Type: Sex-linked recessive lethal gene mutation, Assay Code: SRLT, Evaluation Type: Evaluation A (Pre-1980)) “no conclusion”; (Species/Cell Type: Escherichia coli polA (W3119 vs P3478), Assay Type: Rec-assay, DNA effects (bacterial DNA repair), Assay Code: RE1+, Evaluation Type: Evaluation A (Pre-1980)) “active; positive”; under setting [1], “inactive; negative”; under setting [2], “active; positive”; (Species/Cell Type: Nonhuman, Assay Type: Sister-chromatid exchange (SCE) in vitro, Assay Code: SC2T, Evaluation Type: Evaluation B (Post-1980)) “no conclusion”; (Species/Cell Type: Nonhuman, Assay Type: Sister-chromatid exchange (SCE) in vivo, Assay Code: SC3-, Evaluation Type: Evaluation B (Post-1980)) “inactive; negative”. For the same compound, the mutagenic call reads like this: under setting [3], “inactive; negative”; under setting [4], “no conclusion”.
In the case of `CCNc1nc(Cl)nc(NCC)n1`, the mutagenic call is “no conclusion” (Species/Cell Type: Drosophila melanogaster, Assay Type: Aneuploidy, partial sex chromosome loss, chromosome aberrations, Assay Code: DAPT, Evaluation Type: Evaluation A (Pre-1980)); “no conclusion” (Species/Cell Type: Drosophila melanogaster, Assay Type: Aneuploidy, sex chromosome gain, chromosome aberrations, Assay Code: DAGT, Evaluation Type: Evaluation A (Pre-1980)); “inactive; negative” (Species/Cell Type: Drosophila melanogaster, Assay Type: Aneuploidy, whole sex chromosome loss, chromosome aberrations, Assay Code: DAC-M, Evaluation Type: Evaluation A (Pre-1980)); “inactive; negative” under setting [1]; “inactive; negative” under setting [5]; “inactive; negative” under setting [3]. Also, the mutagenic call by setting is: under setting [4], “no conclusion”; under setting [6], “active; positive”.
Turning to `OCCN1CN(CCO)CN(CCO)C1`, the mutagenic call (Species/Cell Type: Mammalian polychromatic erythrocytes, Assay Type: Micronucleus test, chromosome aberrations, Assay Code: MNTT, Evaluation Type: Evaluation A (Pre-1980)) is “no conclusion”.
Consider `O=C1CN(/N=C/c2ccc([N+](=O)[O-])o2)C(=O)N1CO`, for which the mutagenic call under setting [7] is “no conclusion”.
As for `C=CCNC(=O)OC1(Sc2ccccc2)C(=O)c2ccccc2C1=O`, the mutagenic call (Species/Cell Type: Salmonella typhimurium, Assay Type: Forward and reverse gene mutation, host-mediated assay, Assay Code: HMAT, Evaluation Type: Evaluation A (Pre-1980)) is on record as “no conclusion”.
As for `O=NN(CCCCO)CCCCO`, the mutagenic call under setting [4] is “no conclusion”.
Take `Cc1c2ccccc2c(C)c2c1ccc1ccc(O)cc12`: the mutagenic call (Species/Cell Type: Chinese hamster lung (V79) cells, Assay Type: Forward gene mutation at the HPRT or ouabain locus, Assay Code: V79-*, Activation: With metabolic activation, Evaluation Type: Evaluation A (Pre-1980)) was “inactive; negative”. Besides, the call under setting [8] was “no conclusion”.
For `COc1ccc(CCC(=O)c2c(O)cc(O[C@@H]3O[C@H](CO)[C@@H](O)[C@H](O)[C@H]3O[C@@H]3O[C@@H](C)[C@H](O)[C@@H](O)[C@H]3O)cc2O)cc1O`, the mutagenic call is “active; positive” (Species/Cell Type: Mammalian polychromatic erythrocytes, Assay Type: Micronucleus test, chromosome aberrations, Assay Code: MNT+, Evaluation Type: Evaluation B (Post-1980)); “inactive; negative” (Species/Cell Type: Salmonella typhimurium, Assay Type: Forward and reverse gene mutation, host-mediated assay, Assay Code: HMA-, Evaluation Type: Evaluation A (Pre-1980)).
In the case of `CN(N=O)C(=O)Nc1ccc(Br)cc1`, the mutagenic call (Species/Cell Type: Nonhuman, Assay Type: Sister-chromatid exchange (SCE) in vitro, Assay Code: SC2+D, Dose Response: With dose response, Evaluation Type: Evaluation B (Post-1980)) was “active; positive”.
For the compound `Cc1cccc(-c2ccc(N)cc2C)c1`, the mutagenic call (Species/Cell Type: Syrian hamster embryo (SHE) cells, Assay Type: Cell transformation, clonal assay, Assay Code: CTC+, Evaluation Type: Evaluation A (Pre-1980)) was “active; positive”.
`CC/C(=C(\c1ccccc1)c1ccc(OCCN(C)C)cc1)c1ccccc1`: the mutagenic call under setting [7] is given as “no conclusion”.
As to `CN1CCN(CC(=O)N2c3ccccc3C(=O)Nc3cccnc32)CC1`, the mutagenic call under setting [9] is recorded as “no conclusion”.
Consider `CNC(C)C1CCC(N)C(OC2C(N)CC(N)C(OC3OCC(C)(O)C(NC)C3O)C2O)O1` (stereo not drawn), for which, under setting [3], the mutagenic call was “inactive; negative”.
Turning to `C/C=C\C(=O)O[C@@H]1C[C@H]2O[C@@H]3C=C(C)[C@@H]4O[C@@H]4[C@]3(C)C1(C)[C@]21CO1`, the mutagenic call under setting [4] is recorded as “no conclusion”.
`C[C@@]1(O)C=Cc2cc3c(ccc4ccccc43)c3c2[C@@]1(O)CC3`: the mutagenic call was “inactive; negative” (Species/Cell Type: Chinese hamster lung (V79) cells, Assay Type: Forward gene mutation at the HPRT or ouabain locus, Assay Code: V79-, Evaluation Type: Evaluation A (Pre-1980)) and “no conclusion” under setting [4]. Besides, the call under setting [8] is recorded as “no conclusion”.
Regarding `Cc1ccc(S(=O)(=O)N(C)N=O)cc1`, the mutagenic call under setting [10] is “active; positive”.
Consider `C1O[C@@H]1[C@H]1CO1`, for which the mutagenic call (Species/Cell Type: Allium cepa, Assay Type: Chromosome aberrations, Assay Code: ALC+D, Dose Response: With dose response, Evaluation Type: Evaluation A (Pre-1980)) is “active; positive”; the mutagenic call under setting [10] is “active; positive”; the mutagenic call (Species/Cell Type: Schizosaccharomyces pombe, Assay Type: Reverse gene mutation, Assay Code: YEZ+, Evaluation Type: Evaluation A (Pre-1980)) is “active; positive”; the mutagenic call (Species/Cell Type: Zea mays (corn), Assay Type: Gene mutation, Assay Code: ZEM+, Evaluation Type: Evaluation A (Pre-1980)) is “active; positive”.
Consider `[NH4+].[O-2].[O-2].[O-2].[O-2].[O-2].[Sb+3].[W]`, for which the mutagenic call under setting [6] is “active; positive”.
Take `[Be]`: under setting [11], the call is “active; positive”.
Regarding `ClCCN(CCCl)c1ccc2ccccc2c1`, the mutagenic call under setting [12] was “active; positive”, the mutagenic call under setting [13] was “active; positive” and the mutagenic call under setting [6] is “active; positive”. Also, the call (Species/Cell Type: Nonhuman, Assay Code: CCG+L, Evaluation Type: Evaluation A (Pre-1980)) is “active; positive”.
In the case of `C[C@H]1CCC[C@@]2(C)CCCC[C@]12O`, the mutagenic call under setting [14] is “inactive; negative”.
On to `O=S1(=O)OCCO1`, for which the mutagenic call is “active; positive” under setting [13]; “active; positive” (Species/Cell Type: Salmonella typhimurium, Assay Type: Forward and reverse gene mutation, host-mediated assay, Assay Code: HMA+, Evaluation Type: Evaluation A (Pre-1980)).
In the case of `COC/C=C(C)/C=C/C=C(C)/C=C/C1=C(C)CCCC1(C)C`, the mutagenic call under setting [2] was “active; positive”.
For the compound `Cc1ccc2nc3sc(=O)sc3nc2c1`, under setting [5], the mutagenic call was “inactive; negative”.
Regarding `C/C=C1\C[C@H]2[C@@H](OC)Nc3cc(O)c(OC)cc3C(=O)N2C1`, the mutagenic call under setting [9] is recorded as “no conclusion”.
For `C/C=C1/C[C@@H](C)[C@](O)(CO)C(=O)OCC2=CCN3CC[C@@H](OC1=O)[C@@H]23`, the mutagenic call was “active; positive” under setting [12] and “active; positive” under setting [15].
On to `CC#CC(OC(=O)NC1CCCCC1)(c1ccccc1)c1ccccc1`, for which the mutagenic call under setting [13] was “active; positive”.
In the case of `ClC(Cl)(Cl)Cl`, the mutagenic call was “inactive; negative” (Species/Cell Type: Mouse, Sex: Male, Assay Type: Sperm morphology, Assay Code: SPI-, Evaluation Type: Evaluation A (Pre-1980)); “active; positive” (Species/Cell Type: Saccharomyces cerevisiae, Assay Type: Mitotic recombination or gene conversion, Assay Code: YEC+, Evaluation Type: Evaluation A (Pre-1980)); “active; positive” (Species/Cell Type: Saccharomyces cerevisiae, Assay Type: Mitotic recombination or gene conversion, Assay Code: YEH+, Evaluation Type: Evaluation A (Pre-1980)); “active; positive” (Species/Cell Type: Saccharomyces cerevisiae, Assay Type: Reverse gene mutation, Assay Code: YER+, Evaluation Type: Evaluation A (Pre-1980)); “inactive; negative” under setting [14]. The call under setting [11] was “active; positive”.
With `COc1ccc2c(ccc3c4c(ccc32)C(C)=CC4)c1`, the mutagenic call under setting [15] was “active; positive”.
As to `COc1ccc(OC)c(N=Nc2c(O)ccc3ccccc23)c1`, under setting [11], the call was “active; positive”. Besides, the mutagenic call under setting [14] is “inactive; negative”.
Turning to `COC1=C2C[C@@H](C)C[C@H](OC)[C@H](O)[C@@H](C)/C=C(\C)[C@H](OC(N)=O)[C@@H](OC)/C=C\C=C(/C)C(=O)NC(=CC1=O)C2=O`, the mutagenic call (Species/Cell Type: Fischer rat embryo (RLV/1706) cells, Assay Type: Cell transformation, viral enhanced, Assay Code: CTR-, Evaluation Type: Evaluation A (Pre-1980)) is “inactive; negative”.
